Experimental data: patent US20250304952A1, “DNA ELEMENT RESPONSIVE TO EXTRACHROMOSOMAL DNA IN CANCER CELLS” (The Board of Trustees of the Leland Stanford Junior …, priority 2021, published 2025)

Experiments:
Assay type in all cases: cell-based, human
[1] = test system: COLO320-DM cells and COLO320-HSR cells; assay: JQ1 dose titration: cell viability (CellTiterGlo) and cell proliferation; conditions: viability 48 hours, proliferation over 72 hours
Protocol: Cells were plated in 96-well plates at 25,000 cells/well in triplicate and incubated either with JQ1 (Sigma-Aldrich SML1524) at the indicated concentrations or an equivalent volume of DMSO for 48 hours. Cell viability was measured using the CellTiterGlo assay kit (Promega G7572) in triplicate with luminescence measured on SpectraMax M5 plate reader with an integration time of 1 second per well. Luminescence was normalized to the DMSO treated controls and p values calculated using a Student's t-test comparing biological triplicates.
Cells were plated in 96-well plates at 10,000 cells/well and incubated either with JQ1 (Sigma-Aldrich SML1524) at the indicated concentrations or an equivalent volume of DMSO. Every 24 hours, cells were harvested and counted on Countess 3 Automated Cell Counter (Thermo Fisher) with Trypan Blue used to assess cell viability. P values were calculated using a Student's t-test comparing biological triplicates.

[2] = test system: MYC mRNA in COLO320-HSR cells; assay: MYC RNA measured by RT-qPCR in COLO320-HSR; conditions: 500 nM, 6 hours
Protocol: (§1) Cells were then treated for 6 hours with 500 nM JQ1 in DMSO unless otherwise indicated (Sigma-Aldrich SML1524) or an equivalent volume of DMSO.
(§2) RNA was extracted using RNeasy Plus mini Kit (QIAGEN 74136). Purified RNA was quantified by Nanodrop (Thermo Fisher). For RT-qPCR, 50 ng of RNA, 1× Brilliant II qRT-PCR mastermix with 1 μL RT/RNase block (Agilent 600825), and 200 nM forward and reverse primer were used. Each Ct value was measured using Lightcycler 480 (Roche) and each mean dCt was averaged from duplicate qRT-PCR reaction and performed in biological triplicate. Relative MYC RNA level (RT-qPCR primers MYC_exon3_fw and MYC_exon3_rv) was calculated by ddCt method compared to 18S and GAPDH controls (RT-qPCR primers GAPDH_fw, GAPDH_rv, 18S_fw, 18S_rv). P values were calculated using a Student's t-test by comparing the relative fold change of biological triplicates.
(§3) Approximately 0.6×10^6 COLO320-DM or COLO-320-HSR cells were plated in 6 well plates and cultured under standard conditions for 24 hours. Cells were then treated for 6 hours with one of the following: 500 nM JQ1 (Sigma-Aldrich SML1524), 500 nM MS645 (Sigma Aldrich SML2549), 1 μM THZ-1 (Selleck chemicals S7549), 20 μM SGC-SCP30 (Selleck chemicals S7256), 10 μM OICR-9429 (Selleck chemicals S7833), 50 μM MI-3 (Selleck chemicals S7619), 2 μM trichostatin A (Selleck chemicals S1045), or DMSO. […]

[3] = test system: MYC in SNU16; assay: Oncogene RNA measured by RT-qPCR in SNU16 (MYC); conditions: 500 nM JQ1, 6 hours
Protocol: as §1, §2

[4] = test system: covalently-linked MYC copies in COLO320-HSR; assay: Interphase DNA FISH of chromosomal MYC amplicon (HSR), autocorrelation g(r); conditions: 500 nM, 6 hours
[5] = test system: MYC mRNA in COLO320-DM cells; assay: MYC RNA measured by RT-qPCR in COLO320-DM; conditions: 500 nM, 6 hours
Protocol: as §1, §2, §3

[6] = test system: COLO320-HSR cells; assay: PVT1 promoter-driven NanoLuc luciferase reporter in COLO320-HSR; conditions: JQ1 500 nM, 6 hours
Source text: We constructed a plasmid containing the 2 kb PVT1 promoter (chr8: 128,804,981-128,806,980, hg19) or the MYC promoter (chr8: 128,745,990-128,748,526, hg19) driving NanoLuc luciferase (PVT1p-nLuc) and a constitutive thymidine kinase (TK) promoter driving Firefly luciferase as an internal control (FIG. 3b). Briefly, pGL4-tk-luc2 (Promega) was digested with KpnI and PciI. A sequence containing multiple cloning sites ([…]), NanoLuc and BGH polyA sequence were inserted in tandem into the vector using Gibson assembly (NEBuilder DNA assembly mix). Next, the PVT1 promoter or the MYC promoter was inserted into the vector via NheI and SalI digestion to generate the final reporter construct. For the negative control, a minimal promoter ([…]) was used in place of the PVT1 promoter. For constructing plasmids with a cis-enhancer, an enhancer (chr8: 128347148-128348310, hg19; positive H3K27ac mark and looping to the PVT1 promoter in HiChIP, overlapping with BRD4 ChIP peak and ATAC-seq peak in COLO320-DM) was inserted directly 5′ to the promoter into the region with multiple cloning sites. […] Luciferase levels were quantified using Nano-Glo Dual reporter luciferase assay (Promega). The reporter level was calculated as the ratio of NanoLuc reading over firefly reading using Tecan M1000. Mean and standard errors were calculated based on three biological replicates with three technical replicate each.

Structure (SMILES): Cc1sc2c(c1C)C(c1ccc(Cl)cc1)=N[C@@H](CC(=O)OC(C)(C)C)c1nnc(C)n1-2 [JQ1]
- cell killing, COLO320-DM versus COLO320-HSR [1]: modest preferential killing of COLO320-DM cells over HSR cells
- MYC mRNA level [2]: no significant effect
- ecDNA-derived transcription of MYC [3]: reduced
- spatial distribution of covalently-linked MYC copies [4]: did not alter
- MYC mRNA level [5]: preferentially lowered
- repression of PVT1p-mediated transcription [6]: ~2 fold
